Patent EP0452507A1, “MEDICINE COMPRISING TOCOPHERYL GLYCOSIDE AS ACTIVE INGREDIENT” (NIPPON HYPOX LABORATORIES INCORPORATED, priority 1989, dated 1991)
Where two headings read alike, the source gives them in different places.

Key:
[1] = tested on: delayed-type hypersensitivity; test: picryl chloride-induced delayed-type hypersensitivity, ear swelling ratio; format: in vivo, mice; details: for swelling ratio (ear): versus Control group
Experimental: 76 Male mice (C57BU6Ncrj) weighing 18 to 20 g were used. The abdominal portion of each mouse was shaved such that the shaved portion was about 1 cm^2. Thereafter, 20 µl of an ethanol solution of 7 % picryl chloride was applied to the shaved portions for sensitization.
Eighteen out of the 76 mice were used as Control group. A physiological saline solution containing 10 % Nikkol (Nikkol: trade name, dissolving aid, supplied by Nikko Chemical Co., Ltd.) was administered intraperitoneally to the 18 mice for the consecutive 5 days after the sensitization, and ear thickness of each of these 18 mice was measured on the eighth day after the sensitization. Thereafter, 20 µl of an olive oil solution of 1 % picryl chloride was applied to the ear of each of the mice to cause delayed-type hypersensitivity.
The above pharmaceutical solutions were administered intraperitoneally at the above-described doses for the five consecutive days after the sensitization, and ear thickness of each of these mice was measured on the eighth day after the sensitization. Thereafter, 20 µl of an olive oil solution of 1 % picryl chloride was applied to the ear of each of the mice to cause delayed-type hypersensitivity.
24 Hours after the delayed-type hypersensitivity was induced, the swelling of the ear of each of the mice of Control group and Example groups ①, ②and③ was measured with a dial thickness gauge. On the basis of the values of the ear thickness measured before the application of the olive oil solution of 1 % picryl chloride, the swelling ratio of each of Example groups ①, ② and ③ and Control group was determined.
And, the swelling ratio of the mice was determined.
At first, the abdominal portion of each of forty ICR male mice weighing 20 to 25 g was shaved such that the shaved portion was about 1 cm^2. Thereafter, 20 µl of an ethanol solution of 7 % picryl chloride was applied to the shaved portions for sensitization.

IgE antibody = format: in vivo, rats; details: for IgE antibody amount in serum, Average value: group average, maximum dilution of serum showing positive reaction
Experimental: At first, 20 male SD rats weighing 180 to 220 g were prepared. Egg-white albumin in an amount of 1 mg per rat was prepared as an antigen to induce the IgE antibody-antigen mediating immune response. Further, a mixture of 20 mg/rat of aluminum hydroxide with 0.6 mi/rat of pertussis vaccine was prepared as an immune aid (adjuvant).
Then, the above antigen and the above adjuvant were equally administered intracutaneously into the four footpads of each rat for sensitization.
24 Hours after the sensitization, the footpad swelling of each rat was measured by volumetry to determine the swelling ratio (unit: %). Then, the rats were separated into four groups each consisting of 5 rats such that the average swelling ratio of one group was nearly equal to that of another group.
Thereafter, one of the four groups was used as Control group, and a physiological saline solution of 10 % Nikkol (trade name, dissolving aid, supplied by Nikko Chemical Co., Ltd.) was administered intraperitoneally to each rat for the 11 consecutive days after the group separation, and on 15th day after the group separation, the serum of each rat was collected, and measured for an IgE antibody amount by means of a 48-hour homologous PCA reaction (passive cutaneous anaphylaxis reaction) as an index. In addition, the IgE antibody amount is shown in terms of a maximum dilution (unit: %) of serum showing positive reaction (blue spot having a diameter of not less than 5 mm).
Two groups of the remaining three groups were used as Example groups ⑥ and 0. A physiological saline solution of 10 % Nikkol containing VIE-MAN was administered intraperitoneally to each rat of Example group ⑥ in such a dose that the amount of VIE-MAN was 30 mg/kg/day for 11 days after the group separation. And, a physiological saline solution of 10 % Nikkol containing VIE-MAN was administered intraperitoneally to each rat of Example group 0 every other day (number of days for administration: 6 days) in such a dose that the amount of VIE-MAN was 100 mg/kg/day for 11 days after the group separation. Then, on 15th day after the group separation, the serum of each rat was collected, and measured for an IgE antibody amount in the same manner as that for Control group.
One remaining group of the four groups was used as Comparative Example group @. A physiological saline solution of 10 % Nikkol containing hydrocortisone which was an adrenocortical hormone preparation was administered intraperitoneally to each rat in such a dose that the amount of the hydrocortisone was 10 mg/kg/day for the consecutive 11 days after the group separation. Then, on 15th day after the group separation, the serum of each rat was collected, and measured for an IgE antibody amount in the same manner as that for Example groups 6 and ⑦.

[2] = tested on: carrageenin-induced inflammation; test: carrageenin-induced inflammation, right hind paw swelling by volumetry; format: in vivo, rats; details: Example 7, Fig. 6; for inhibition activity against carrageenin-induced inflammation: VIE-MAN 10, 30, 100 mg/kg, depending upon its dose, comparators 10 mg/kg, intraperitoneally
Experimental: Six groups each consisting of five male SD rats weighing 180 to 220 g were used (total 30 rats), and each rat was measured for a size of the subplantar region1 of the right hind paw.
In order to induce carrageenin-induced inflammation, 0.1 ml/rat of a physiological saline solution of 1 % X-carrageenin was prepared.
One out of the six groups was used as Control group. A physiological saline solution of 10 % Nikkol was administered intraperitoneally to each rat of this group, and 0.5 hours after the administration of the physiological saline solution of 10 % Nikkol, 0.1 ml of the physiological saline solution of 1 % X-carrageenin was administered intracutaneously into the subplantar region of the right hind paw of each rat. Then, 0.5, 1, 2, 3 and 4 hours after the administration of […] of the physiological saline solution of 1 % X-carrageenin, the swelling on the subplantar region of the right hind paw of each rat was measured by volumetry, arid the average of swelling ratios of the group in every measurement was determined on the basis of the measurement values of the sizes of subplantar regions of the right hind paws of the rats obtained before the administration of the physiological saline solution of 10 % Nikkol solution.
The procedure for Control group was repeated except that a physiological saline solution of 10 % Nikkol containing VIE-MAN in place of the physiological saline solution of 10 % Nikkol was administered intraperitoneally in such a dose that the amount of VIE-MAN was 10 mg/kg.
The procedure for Control group was repeated except that a physiological saline solution of 10 % Nikkol containing VIE-MAN in place of the physiological saline solution of 10 % Nikkol was administered intraperitoneally in such a dose that the amount of VIE-MAN was 30 mg/kg.
The procedure for Control group was repeated except that a physiological saline solution of 10 % Nikkol containing VIE-MAN in place of the physiological saline solution of 10 % Nikkol was administered intraperitoneally in such a dose that the amount of VIE-MAN was 100 mg/kg.
(§1) The procedure for Example groups ⑭, ⑮ and ⑯ was repeated except that a physiological saline solution of 10 % Nikkol containing cortisone acetate which was a steroidal anti-inflammatory preparation (immunosuppressive preparation) in place of the physiological saline solution of 10 % Nikkol containing VIE-MAN was administered intraperitoneally in such a dose that the amount of the cortisone acetate was 10 mg/kg.
as §1, with “indomethacin” for “cortisone acetate”, “nonsteroidal” for “steroidal”, “(antipyretic analgesic antiphlogistic” for “(immunosuppressive”

[3] = Example 2, Fig. 2, ICR male mice, 100 mg/kg/day intraperitoneally
[4] = Example 2, ICR mice, 100 mg/kg/day intraperitoneally

| SMILES | swelling ratio (ear) [1, 3] | side effects such as a reduction in body weight [1, 4] | inhibition activity against the IgE antibody production (IgE antibody; same test as Example 3 with VIE-GLU in place of VIE-MAN) | delayed-type hypersensitivity prevented and cured ([1]; Example 1, Fig. 1, 10, 30 and 100 mg/kg/day intraperitoneally) | swelling ratio (ear) ([1]; Example 1, Fig. 1, C57BU6Ncrj mice, 10, 30 and 100 mg/kg/day intraperitoneally for 5 days after sensitization, 24 hours after induction) | preventive and therapeutical effect on delayed-type hypersensitivity (comparison) ([1]; Example 1, Fig. 1, VIE-MAN 10, 30, 100 mg/kg/day versus methotrexate 1 mg/kg/day, intraperitoneally) | side effects such as a reduction in body weight ([1]; Example 1, mice, 10, 30 and 100 mg/kg/day intraperitoneally for 5 days) | average of swelling ratios ([2]; 10, 30 and 100 mg/kg intraperitoneally, 0.5 hour after administration of 1 % carrageenin solution, versus Control group) | inhibition activity against carrageenin-induced inflammation [2] | average value of the IgE antibody amounts as a group unit (IgE antibody; 30 mg/kg/day (11 days) or 100 mg/kg/day (6 days) intraperitoneally, versus Control group) | inhibition activity against the IgE antibody production (IgE antibody; Example 3 / Comparative Example 2, VIE-MAN 30 or 100 mg/kg/day, hydrocortisone 10 mg/kg/day, intraperitoneally) | IgE antibody amount in serum, Average value (IgE antibody; 30 mg/kg/day (total 11 days) intraperitoneally) | IgE antibody amount in serum, Average value (IgE antibody; 100 mg/kg/day (total 6 days) intraperitoneally) | inhibition activity against carrageenin-induced inflammation compared with VIE-MAN ([2]; comparators 10 mg/kg intraperitoneally) |
| --- | --- | --- | --- | --- | --- | --- | --- | --- | --- | --- | --- | --- | --- | --- |
| Cc1c(C)c2c(c(C)c1OC1OC(CO)C(O)C(O)C1O)CCC(C)(CCCC(C)CCCC(C)CCCC(C)C)O2 (racemic) [VIE-GLU, dl-α-tocopheryl-,8-D-glucoside] | significantly lower than that of Control group | not observed | excellent inhibition activity |  |  |  |  |  |  |  |  |  |  |  |
| Cc1c(C)c2c(c(C)c1OC1OC(CO)C(O)C(O)C1O)CCC(C)(CCCC(C)CCCC(C)CCCC(C)C)O2 (racemic) [VIE-MAN, dl-a-tocopheryl-a-D-mannoside] | significantly lower than that of Control group | not observed |  | dose-dependently prevented and cured | significantly lower than that of Control group | superior to methotrexate | not observed | significantly lower than that of swelling ratios of Control group | excellent inhibition activity | significantly lower than that of the IgE antibody amounts of Control group | excellent inhibition activity | 166.4 | 128.0 |  |
| COc1ccc2c(c1)c(CC(=O)O)c(C)n2C(=O)c1ccc(Cl)cc1 [indomethacin, reference compound] |  |  |  |  |  |  |  |  | significant activity at and after 0.5 hour |  |  |  |  | lower than that of VIE-MAN |
